Measured values from patent publication US20110172098A1, “Imidazole and Triazole Compounds, Their Use and Agents Containing the Same” (priority 2008, published 2011).

How the values were obtained:
Botrytis cinerea = test: Activity against the gray mold pathogen Botrytis cinerea in the microtiter test (M1 / C1); assay type: cell-based; settings: comparison with the prior art, day 7
Protocol: (§1) Leaves of soybean seedlings grown in pots were inoculated with a spore suspension of soybean rust (Phakopsora pachyrhizi). The pots were then placed in a chamber of high atmospheric humidity (90 to 95%) and 23 to 27° C. for 24 hours. During this time, the spores germinated and the germ tubes penetrated into the leaf tissue. The infected plants were then cultivated further in a greenhouse at temperatures between 23 and 27° C. and 60 to 80% relative atmospheric humidity. After two days, the plants were sprayed to runoff point with the active compound solution described above at the active compound concentration indicated below. After the spray coating had dried on, the test plants were cultivated in a greenhouse at temperatures between 23 and 27° C. and 60 to 80% relative atmospheric humidity for a further 10 days. The extent of the rust fungus development on the leaves was then determined visually in % of infection. […] B) Micro test The active compounds were formulated separately as a stock solution having a concentration of 10 000 ppm in DMSO.
The stock solution was pipetted into a microtiter plate (MTP) and diluted with water to the stated active compound concentration. […] Using an absorption photometer, the MTPs were measured at 405 nm on day 7 after the inoculation. The measured parameters were compared to the growth of the active compound-free control variant and the fungus- and active compound-free blank value to determine the relative growth in % of the pathogens in the individual active compounds.
(§2) The active compounds were formulated separately as a stock solution having a concentration of 10 000 ppm in DMSO. […] Using an absorption photometer, the MTPs were measured at 405 nm on day 7 after the inoculation. The measured parameters were compared to the growth of the active compound-free control variant and the fungus- and active compound-free blank value to determine the relative growth in % of the pathogens in the individual active compounds. […] […]

Septoria tritici = test: Activity against the Septoria leaf blotch pathogen Septoria tritici in the microtiter test (M2 / C2); assay type: cell-based; settings: comparison with the prior art, day 7
Protocol: as §1
The stock solution was pipetted into a microtiter plate (MTP) and diluted with water to the stated active compound concentration. […] Using an absorption photometer, the MTPs were measured at 405 nm on day 7 after the inoculation. The measured parameters were compared to the growth of the active compound-free control variant (100%) and the fungus- and active compound-free blank value to determine the relative growth in % of the pathogens in the individual active compounds. […]
as §2

Structure (SMILES)	Growth (%) at 31 ppm of C1 (Botrytis cinerea) [%]	Growth (%) at 31 ppm of C2 (Septoria tritici) [%]
CC(C)(C)C(O)C(CCc1ccccc1)n1cncn1 (stereo not drawn) [reference compound]	81	100
Cc1ccc(CCC(C(O)C(C)(C)C)n2cncn2)cc1 (stereo not drawn)	4	4
Cc1ccc(C(C)CC(C(O)C(C)(C)C)n2cncn2)cc1 (stereo not drawn)	0	3
